According to patent publication US6022307A, “Substituted dibenzothiophenes having antiangiogenic activity” (American Cyanamid Company, priority 1999, dated 2000):
Where a name gives a salt, the structure may show the parent alone.

Tested on: KDR
Experimental: Inhibition of Binding of VEGF 165 to KDR & Flt-1 Receptors as Measured by SPA Assay
Preparation of conditioned media containing the KDR-Fc soluble VEGF receptor.:
Human 293KDR2 cells, which secrete a soluble KDR-Fc fusion protein, were grown in Dulbecco's Modified Eagle Medium supplemented with 10% fetal calf serum, 2 mM glutamine, 10 units/ml penicillin G sulfate, 10 μg/ml streptomycin sulfate and 175 μg/ml geneticin (G418) sulfate. Cells were plated at a density of 10^6 cells/100 mm dish and incubated at 37° C. in a humidified atmosphere containing 95% air and 5% CO2. After 10 days, conditioned medium was collected and centrifuged at 15,000 rpm for 15 min to remove dead cells. A total of 0.1 volume of 1.15% gelatin and 0.02 volume of 1M HEPES buffer (pH 8) was added. Leupeptin and pepstatin A were added to 1 μg/ml each.
Preparation of ^125 I-labelled VEGF ligand:
Recombinant human ^125 T-labelled VEGF 165 was purchased from Amersham (3,800 cpm/fmol). ^125,-labelled VEGF was diluted in DMEM supplemented with gelatin (0.15%) and HEPES buffer (20 mM) to a final concentration of 40,000 cpm/25 μl.
Preparation of SPA beads:
SPA PVT antibody-binding beads were purchased from Amersham. Each bottle of SPA beads (500 mg) was reconstituted in 25 ml of DMEM supplemented with gelatin (0.15%) and HEPES buffer (20 mM). The bottle contents were well mixed (15 min with a stir bar at room temperature).
SPA assays were performed in flat-bottom polystyrene 96 well microtitre plates.
(a) Pipette 50 μl of SPA beads to well.
(b) Pipette 25 μl of conditioned medium to well.
(d) Pipette 25 μl of ^125 J-VEGF 165 to well.
The appropriate control wells were set up to measure non-specific binding, solvent effect, etc. The assays were run in duplicate or triplicate wells. Plates were sealed and incubate at room temperature without shaking for 5 to 20 hours. Plates were then counted in a Packard TopCount microtitre plate liquid scintillation counter.
A typical assay gave 3,000 to 6,000 cpm bound. Background binding (measured in the presence of 100-fold molar excess of unlabelled VEGF 165) was typically 200 to 300 cpm bound. Compounds were tested at 30, 10, 3, 1, 0.3 and 0.1 μg/ml in DMSO. […] Half maximal binding was determined by the following equation:
s=maximal cpm bound in the absence of compound.
The IC50 values were determined graphically by the following procedure:
A graph was drawn plotting compound concentration (x-axis) versus cpm bound (y-axis).
The half maximal binding was calculated using the equation above.
A horizontal line (LINE A) was drawn which intersects the y-axis at the half maximal binding value.
A vertical line (LINE B) was drawn through the point where LINE A intersects the inhibition curve.
The point where LINE B intersects the x-axis was extrapolated from the graph to give the IC50 value.

O=C(Nc1cc2sc3cc(NC(=O)c4ccc5cc6ccccc6cc5c4)c(C(=O)O)cc3c2cc1C(=O)O)c1ccc2cc3ccccc3cc2c1 [Example 3, 3,7-Bis[(2-anthracenylcarbonyl)amino]-2,8-dibenzothiophene-2,8-dicarboxylic acid, disodium salt]
IC50: 3.4 µg/mL

O=C(Nc1cc2sc3cc(NC(=O)c4cc5sccc5s4)c(C(=O)O)cc3c2cc1C(=O)O)c1cc2sccc2s1 [Example 5, 3,7-Bis[(thieno[3,2-b]thien-2-ylcarbonyl)amino]dibenzothiophene-2,8-dicarboxylic acid, disodium salt]
IC50: 0.7 µg/mL

O=C(/C=C/c1ccc(-c2ccccc2)cc1)Nc1cc2sc3cc(NC(=O)/C=C/c4ccc(-c5ccccc5)cc4)c(C(=O)O)cc3c2cc1C(=O)O [Example 9, 3,7-Bis-(3-biphenyl-4-ylacryloylamino)dibenzothiophene-2,8-dicarboxylic Acid, disodium salt]
IC50: 3.4 µg/mL

COc1cc(/C=C/C(=O)Nc2cc3sc4cc(NC(=O)/C=C/c5cc(Br)c(O)c(OC)c5)c(C(=O)O)cc4c3cc2C(=O)O)cc(Br)c1O [Example 10, 3,7-Bis-[3-(3-bromo-4-hydroxy-5-methoxy-phenyl)acryloylamino]-dibenzothiophene-2,8-dicarboxylic Acid, disodium]
IC50: 0.9 µg/mL

COc1ccc(/C=C/C(=O)Nc2cc3sc4cc(NC(=O)/C=C/c5ccc(OC)c(OC)c5OC)c(C(=O)O)cc4c3cc2C(=O)O)c(OC)c1OC [Example 11, 3,7-Bis-[3-(2,3,4-trimethoxyphenyl)acryloylamino]dibenzothiophene-2,8-dicarboxylic Acid, disodium salt]
IC50: 1.7 µg/mL

C=C(C(=O)Nc1cc2sc3cc(Cl)c(C(=O)O)cc3c2cc1C(=O)O)c1ccc(OC)c(OC)c1Cl [Example 14, 3-Chloro-7-[2-(2-chloro-3,4-dimethoxyphenyl)acryloylamino]dibenzothiophene-2,8-dicarboxylic acid, disodium salt]
IC50: 3 µg/mL

O=C(Nc1cc2sc3cc(Cl)c(C(=O)O)cc3c2cc1C(=O)O)c1ccc2cc3ccccc3cc2c1 [Example 15, 3-[(2-Anthracenylcarbonyl)amino]-7-chlorodibenzothiophene-2,8-dicarboxylic acid, disodium salt]
IC50: 1.6 µg/mL

CCOP(=O)(O)c1cc2c(cc1NC(=O)/C=C/c1ccc(OC)c(OC)c1Cl)S(=O)(=O)c1cc(NC(=O)/C=C/c3ccc(OC)c(OC)c3Cl)c(P(=O)(O)OCC)cc1-2 [Example 19, [3,7-Bis-[3-(2-chloro-3,4-dimethoxyphenyl)acryloylamino]-8-(ethoxyhydroxyphosphoryl)-5 .5-dioxo-5H-5λ^6-dibenzothiophen-2-yl]phosphonic acid monoethyl ester, disodium salt]
IC50: 0.55 µg/mL

CCOP(=O)(O)c1cc2c(cc1NC(=O)c1ccc3c(c1)C(=O)c1ccccc1C3=O)S(=O)(=O)c1cc(NC(=O)c3ccc4c(c3)C(=O)c3ccccc3C4=O)c(P(=O)(O)OCC)cc1-2 [Example 21, [3,7-Bis-[9,10-dioxo-9,10-dihydroanthracene-2-carbonyl)amino]-8-(ethoxyhydroxy-phosphoryl)-5,5-dioxo-5H-5^6-dibenzothiophen-2-yl]phosphonic acid monoethyl ester, disodium salt]
IC50: 0.2 µg/mL

CCOP(=O)(O)c1cc2c(cc1NC(=O)c1ccc3cc4ccccc4cc3c1)S(=O)(=O)c1cc(NC(=O)c3ccc4cc5ccccc5cc4c3)c(P(=O)(O)OCC)cc1-2 [Example 22, [3,7-Bis-[(anthracene-2-carbonyl)amino]-8-(ethoxyhydroxy-phosphoryl)-5,5-dioxo-5H-5^6-dibenzothiophen-2-yl]-phosphonic acid mono-ethyl ester, disodium salt]
IC50: 0.06 µg/mL

CCOP(=O)(O)c1cc2c(cc1NC(=O)c1cc3ccccc3s1)S(=O)(=O)c1cc(NC(=O)c3cc4ccccc4s3)c(P(=O)(OCC)OCC)cc1-2 [Example 23b, [3,7-Bis[(benzo[b]thiophene-2-carbonyl)amino-8-(diethoxyphosphoryl)-5,5-dioxo-5H-5λ^6-dibenzothiophen-2-yl]phosphonic acid monoethyl ester, monosodium salt]
IC50: 0.58 µg/mL

O=C(/C=C/c1ccc([N+](=O)[O-])cc1)Nc1cc2c(cc1S(=O)(=O)O)-c1cc(S(=O)(=O)O)c(NC(=O)/C=C/c3ccc([N+](=O)[O-])cc3)cc1S2(=O)=O [Example 25, 3,7-Bis-[3-(4-nitrophenyl)-acryloylamino]-5,5-dioxo-5H-5^6-dibenzothiophene-2,8-disulfonic acid, disodium salt]
IC50: 1 µg/mL

O=C(/C=C/c1cccc2ccccc12)Nc1cc2c(cc1S(=O)(=O)O)-c1cc(S(=O)(=O)O)c(NC(=O)/C=C/c3cccc4ccccc34)cc1S2(=O)=O [Example 26, 3,7-Bis-(3-naphthalen-1-yl-acryloylamino)-5,5-dioxo-5H-5^6-dibenzothiophene-2,8-disulfonic acid, disodium salt]
IC50: 1.5 µg/mL

O=C(/C=C/c1ccncc1)Nc1cc2c(cc1S(=O)(=O)O)-c1cc(S(=O)(=O)O)c(NC(=O)/C=C/c3ccncc3)cc1S2(=O)=O [Example 28, 5,5-Dioxo-3,7-bis-(3-pyridin-4-ylacryloylamino)-5H-5^6-dibenzothiophene-2,8-disulfonic acid, disodium salt]
IC50: 2.5 µg/mL

O=C(/C=C/c1cccc(O)c1)Nc1cc2c(cc1S(=O)(=O)O)-c1cc(S(=O)(=O)O)c(NC(=O)/C=C/c3cccc(O)c3)cc1S2(=O)=O [Example 31, 3,7-Bis-[(E)-3-(3-hydroxy-phenyl)acryloylamino]-5,5-dioxo-5H-5^6-dibenzothiophene-2,8-disulfonic acid, disodium]
IC50: 5 µg/mL

N#Cc1ccc(/C=C/C(=O)Nc2cc3c(cc2S(=O)(=O)O)-c2cc(S(=O)(=O)O)c(NC(=O)/C=C/c4ccc(C#N)cc4)cc2S3(=O)=O)cc1 [Example 32, 3,7-Bis-[3-(4-cyanophenyl)-acryloylamino]-5,5-dioxo-5H-5^6-dibenzothiophene-2,8-disulfonic acid, disodium salt]
IC50: 0.8 µg/mL

O=C(/C=C/c1ccc(Br)cc1)Nc1cc2c(cc1S(=O)(=O)O)-c1cc(S(=O)(=O)O)c(NC(=O)/C=C/c3ccc(Br)cc3)cc1S2(=O)=O [Example 33, 3,7-Bis-[3-(4-bromophenyl)-acryloylamino]-5,5-dioxo-5H-5^6-dibenzothiophene-2,8-disulfonic acid, disodium salt]
IC50: 0.5 µg/mL

COc1ccccc1/C=C/C(=O)Nc1cc2c(cc1S(=O)(=O)O)-c1cc(S(=O)(=O)O)c(NC(=O)/C=C/c3ccccc3OC)cc1S2(=O)=O [Example 34, 3,7-Bis-[3-(2-methoxyphenyl)-acryloylamino]-5,5-dioxo-5H-5^6-dibenzothiophene-2,8-disulfonic acid, disodium salt]
IC50: 2.5 µg/mL

Cc1ccc(C)c(/C=C/C(=O)Nc2cc3c(cc2S(=O)(=O)O)-c2cc(S(=O)(=O)O)c(NC(=O)/C=C/c4cc(C)ccc4C)cc2S3(=O)=O)c1 [Example 35, 3,7-Bis-[3-(2,5-dimethylphenyl)-acryloylamino]-5,5-dioxo-5H-5^6-dibenzothiophene-2,8-disulfonic acid, disodium]
IC50: 2.5 µg/mL

CC(C)c1ccc(/C=C/C(=O)Nc2cc3c(cc2S(=O)(=O)O)-c2cc(S(=O)(=O)O)c(NC(=O)/C=C/c4ccc(C(C)C)cc4)cc2S3(=O)=O)cc1 [Example 36, 3,7-Bis-[3-(4-isopropylphenyl)-acryloylamino]-5,5-dioxo-5H-5^ -dibenzothiophene-2,8-disulfonic acid, disodium]
IC50: 6 µg/mL
